{
  "source": "patent US6458838B1",
  "about": "“Adrenoleukodystrophy treatments” (Johns Hopkins University, priority 1999, dated 2002)",
  "key": {"ALDP [1]": {"system": "ALDP", "test": "ALDP stabilization, cytological immunofluorescence with anti-ALDP antibody", "assay_type": "cell-based", "settings": "human X-ALD primary fibroblasts with destabilizing missense mutations (A626T, R660W); 5 mM 4-PBA up to 10 days; data not shown", "description": "Immunofluorescence and peroxisome counting. […] The anti-SKL (PTSI) antibody was a gift from S. Gould and the anti-Pex11α antibody was a gift from S. Mihalik. To count peroxisomes, we photographed immunofluorescence-stained cells after focusing on the cell nucleus, and determined the peroxisome number per cell with the aid of a colon counter after projecting the slides to enlarge the image."}, "PMP69": {"system": "PMP69", "test": "Semi-quantitative RT-PCR in primary fibroblasts", "assay_type": "cell-based, human", "settings": "X-ALD or normal primary fibroblasts, 5 mM 4-PBA for 2 days", "procedure": "(§1) Semi-quantitative RT-PCR was done on the mRNA isolated from these cells (FIG. 1). […] In addition, the expression of acyl-CoA oxidase (AOX), the rate-limiting enzyme in VLCFA β-oxidation, was not affected. Although previous studies have reported that ALDR mRNA was not detectable in fibroblasts by either northern or RT-PCR analyses, those RT-PCR studies used about 66 ng of CDNA; we used about 250 ng of cDNA.\n(§2) Semi-quantitative RT-PCR analysis. Total RNA from tissue culture cells (10^6-10^7 cells/sample) was isolated using TRizol Reagent™ (Life Technologies), treated with DNase I (100-200 units in 40 mM HCI, 10 mM NaCl, 6 mM MgCl2, pH 7.3), incubated at 37° C. for 30 min, extracted with phenol/chloroform, and precipitated with isopropanol. cDNA was generated using MMLV reverse transcriptase (RT) (Life Technologies). PCR was done in the linear range of amplification (determined for each primerpair-cDNA combination). For each cDNA sample, a ‘cocktail’ was prepared, containing PCR buffer (Promega), 200 µM of each DNTP, 1.5 mM MgCl2, 250 ng cDNA, 0.25 U of Taq polymerase (Promega) and […]. The ‘cocktail’ was divided into separate tubes containing cDNA specific primers.\n(§3) Primers. The PCR primers used are listed below. In the parentheses, h indicates human and m, mouse; this is followed by the gene name, product size and annealing temperature. For primer sequences, F is forward and R is reverse. […]"}, "ALDP [2]": {"system": "ALDP", "test": "Semi-quantitative RT-PCR in primary fibroblasts", "assay_type": "cell-based, human", "settings": "normal primary fibroblasts, 5 mM 4-PBA for 2 days", "procedure": "as §1, §2, §3"}, "PMP70": {"system": "PMP70", "test": "Semi-quantitative RT-PCR in primary fibroblasts", "assay_type": "cell-based, human", "settings": "X-ALD or normal primary fibroblasts, 5 mM 4-PBA for 2 days", "procedure": "as §1, §2, §3"}, "[3]": {"system": "mouse primary fibroblasts", "test": "Toxicity of 4-PBA concentration in culture", "assay_type": "cell-based", "settings": "data not shown", "description": "(§4) The genotypes of the X-ALD patients included missense, nonsense, frame shift and deletion mutations and all of the main clinical phenotypes."}, "[4]": {"system": "human primary fibroblasts", "test": "Toxicity of 4-PBA concentration in culture", "assay_type": "cell-based", "settings": "data not shown", "description": "as §4"}, "[5]": {"system": "X-ALD mouse primary fibroblasts", "test": "C24:0 β-oxidation activity ([1-14C]-C24:0 to water-soluble products)", "assay_type": "cell-based", "settings": "5 mM 4PBA for 6 days", "procedure": "(§5) Human Tibroblast C24:0 β-oxidation increased from 25% to 48% of normal; human lymphobfastoid cells, from 18% to 53% of normal; and mouse fibroblasts, from 15% to 29% of normal. […] There are several possible mechanisms that could account for the action of 4-PBA in X-ALD.\n(§6) Cell culture and 4-PBA treatment. Cell lines derived from X-ALD patients and X-ALD mice were grown in MEM (fibroblasts) or RPMI (ymphoblastoid cells) supplemented with fetal calf serum (10%), penicillin (100 U/ml), streptomycin (100 U/mi) and glutamine (2 mM). […] Cells in the second flask were grown without drug for the same length of time and served as controls. The media were changed every 3-4 days.\n(§7) Biochemical measurements. […] For VLCFA measurements, total lipids were extracted, converted to methyl esters, purified by TLC and subjected to capillary GC analysis as described. Duplicate assays were set up independently and were assayed on different days. C24:0 β-oxidation activity of human and mouse fibroblasts and human lymphoblastoid cells was determined by measuring their capacity to degrade [1-^14C]-C24:0 fatty acid (American Radiolabeled Chemicals, St Louis, Mo.) to water-soluble products as described. Phytanic acid oxidation was measured as described. Cells were incubated with [2,3-^3H]-phytanic acid for 24 hours, and the release of ^3H-H2O to the aqueous medium was determined (activity in pmol/hr per mg protein)."}, "[6]": {"system": "X-ALD human primary fibroblasts", "test": "C24:0 β-oxidation activity ([1-14C]-C24:0 to water-soluble products)", "assay_type": "cell-based", "procedure": "as §5, §6, §7"}, "[7]": {"system": "X-ALD human lymphoblastoid cells", "test": "C24:0 β-oxidation activity ([1-14C]-C24:0 to water-soluble products)", "assay_type": "cell-based", "settings": "5 mM 4PBA for 6 days", "procedure": "as §5, §6, §7"}},
  "data": [
    {"smiles": "O=C(O)CCCc1ccccc1", "note": "[4-PBA, 4-Phenyl butyrate]", "values": [
      {"measurement": "detectable ALDP after treatment", "setting": "ALDP [1]", "result": "did not result in detectable levels of ALDP"},
      {"measurement": "PMP69 expression level", "setting": "PMP69", "result": "little, if any, effect"},
      {"measurement": "ALDP expression (mRNA)", "setting": "ALDP [2]", "result": "little, if any, effect"},
      {"measurement": "PMP70 expression level", "setting": "PMP70", "result": "little, if any, effect"},
      {"measurement": "concentrations toxic for cells", "setting": "[3]", "result": "exceeding 7.5 mM"},
      {"measurement": "concentrations toxic for cells", "setting": "[4]", "result": "exceeding 7.5 mM"},
      {"measurement": "C24:0 β-oxidation, Increase (treated vs untreated)", "setting": "[5]", "result": 1.87, "unit": "fold"},
      {"measurement": "increase in C24:0 β-oxidation", "setting": "[6]; 5 mM 4-PBA for 6 days, all X-ALD cell lines tested (human and mouse)", "result": "twofold to threefold increase"},
      {"measurement": "C24:0 β-oxidation, Increase (treated vs untreated)", "setting": "[6]; 5 mM 4PBA for 6 days", "result": 1.95, "unit": "fold"},
      {"measurement": "C24:0 β-oxidation, Increase (treated vs untreated)", "setting": "[7]", "result": 2.92, "unit": "fold"}
    ]}
  ]
}
